Experimental data as given in US10071957B2, “N-substituted benzamides and methods of use thereof” (GENENTECH, INC., priority 2012, dated 2018).

Tests used:
[1] = target: T1, hNaV1.7 (Homo sapiens (Human), UniProt Q15858); test: Patch voltage clamp electrophysiology, inactivated state block of NaV1.7 in HEK-293 cells; format: cell-based; conditions: HEK cells with β1 subunit, read-out: hNaV 1.7 IC50
Method: Patch voltage clamp electrophysiology allows for the direct measurement and quantification of block of voltage-gated sodium channels (NaV's), and allows the determination of the time- and voltage-dependence of block which has been interpreted as differential binding to the resting, open, and inactivated states of the sodium channel (Hille, B., Journal of General Physiology (1977), 69: 497-515).
The following patch voltage clamp electrophysiology studies were performed on representative compounds of the invention using human embryonic kidney cells (HEK), permanently transfected with an expression vector containing the full-length cDNA coding for the desired human sodium channel α-subunit, grown in culture media containing 10% FBS, 1% PSG, and 0.5 mg/mL G418 at 37° C. with 5% CO2. […] NaV1.7 and NaV1.5 cDNAs (NM_002977 and AC137587; SCN5A, respectively) were stably expressed in HEK-293 cells. The β1 subunit was coexpressed in both the NaV1.7 and NaV1.5 cell lines.
Sodium currents were measured using the patch clamp technique in the whole-cell configuration using either a PatchXpress automated voltage clamp or manually using an Axopatch 200B (Axon Instruments) or Model 2400 (A-M systems) amplifier. The manual voltage clamp protocol was as follows:
The pipette was filled with a solution comprised of: 5 mM NaCl, 10 mM CsCl, 120 mM CsF, 0.1 mM CaCl2, 2 mM MgCl2, 10 mM HEPES, 10 mM EGTA; and adjusted to pH 7.2 with CsOH. The external solution had the following composition: 140 mM NaCl, 5 mM KCl, 2 mM CaCl2, 1 mM MgCl2, 10 mM HEPES; and adjusted to pH 7.4 with NaOH. In some studies, the external sodium was reduced by equimolar replacement with choline. Osmolarity in the CsF internal and NaCl external solutions was adjusted to 300 mOsm/kg and 310 mOsm/kg with glucose, respectively. All recordings were performed at ambient temperature in a bath chamber with a volume of 150 μL. Control sodium currents were measured in 0.5% DMSO. Controls and representative compounds of the invention were applied to the recording chamber through a 4-pinch or 8-pinch valve bath perfusion system manufactured by ALA Scientific Instruments.
Currents were recorded at 40 kHz sampling frequency, filtered at […], and stored using a Digidata-1322A analogue/digital interface with the pClamp software (Axon Instruments). Series resistance compensation was applied (60-80%). […] All statistics in this study are given as mean±SD.
The membrane potential was maintained at a voltage where inactivation of the channel is complete (which was −60 mV for both NaV1.7 and NaV1.5). […] The percent decrease in sodium current following wash-on of compound was taken as the percent block of sodium channels.

[2] = target: T1, hNaV1.7; test: Competitive binding of tritiated compound to membranes from cells expressing hNav1.7 and the β1 subunit; conditions: 100 pM [3H]compound, 18 h, room temperature; read-out: NaV1.7 395 Membrane Binding IC50
Method: Tritiated compound binding to membranes isolated from cells that heterologously express hNav1.7 and the β1 subunit
Preparation of membranes containing recombinantly expressed sodium channels: Frozen recombinant cell pellets were thawed on ice and diluted to 4 times the cell pellet weight with ice cold 50 mM Tris HCl, pH 7.4 buffer. The cell suspensions were homogenized on ice using a motorized glass dounce homogeniser. Homogenates were further diluted 8.4 times with ice cold 50 mM Tris HCl, pH 7.4 buffer and then centrifuged at 200×g at 4° C. for 15 min. The supernatants were collected and centrifuged at 10000×g at 4° C. for 50 min. The pellets were then re-suspended in 100 mM NaCl, 20 mM Tris HCl, pH 7.4 buffer containing 1% v/v protease inhibitors (Calbiochem) and re-homogenized on ice. The homogenized membranes were then processed through a syringe equipped with a 26 gauge needle. Protein concentrations were determined by Bradford Assay and the membranes were stored at −80° C.
Radioligand Binding Studies: Saturation experiments. A representative compound of formula (I) was tritiated. Three tritiums were incorporated in place of methyl hydrogens to generate [^3H]compound. Binding of this radioligand was performed in 5 mL borosilicate glass test tubes at room temperature. Binding was initiated by adding membranes to increasing concentrations of [^3H]compound in 100 mM NaCl, 20 mM Tris HCl, pH 7.4 buffer containing 0.01% w/v bovine serum albumin (BSA) for 18 h. Non-specific binding was determined in the presence of 1 μM unlabelled compound. After 18 h, the reactants were filtered through GF/C glass fiber filters presoaked in 0.5% w/v polyethylene imine. Filters were washed with 15 mL ice cold 100 mM NaCl, 20 mM Tris HCl, pH 7.4 buffer containing 0.25% BSA to separate bound from free ligand. [^3H]compound bound to filters was quantified by liquid scintillation counting.
Competitive binding experiments. Binding reactions were performed in 96-well polypropylene plates at room temperature for 18 h. In 360 μL, membranes were incubated with 100 pM [^3H]compound and increasing concentrations of Test Compound. Non-specific binding was defined in the presence of 1 μM unlabelled compound. Reactions were transferred and filtered through 96-well glass fiber/C filter plates presoaked with 0.5% polyethylene imine. The filtered reactions were washed 5 times with 200 μL ice cold buffer containing 0.25% BSA. Bound radioactivity was determined by liquid scintillation counting.
Data Analysis: For saturation experiments, non-specific binding was subtracted from total binding to provide specific binding and these values were recalculated in terms of pmol ligand bound per mg protein. Saturation curves were constructed and dissociation constants were calculated using the single site ligand binding model: Beq=(Bmax*X)/(X+Kd), where Beq is the amount of ligand bound at equilibrium, Bmax is the maximum receptor density, Kd is the dissociation constant for the ligand, and X is the free ligand concentration. For competition studies percent inhibition was determined and IC50 values were calculated using a 4 parameter logistic model (% inhibition=(A+((B−A)/(1+((x/C)^D)))) using XLfit, where A and B are the maximal and minimum inhibition respectively, C is the IC50 concentration and D is the (Hill) slope.

T1 sequence (Q15858 whole entry, looked up): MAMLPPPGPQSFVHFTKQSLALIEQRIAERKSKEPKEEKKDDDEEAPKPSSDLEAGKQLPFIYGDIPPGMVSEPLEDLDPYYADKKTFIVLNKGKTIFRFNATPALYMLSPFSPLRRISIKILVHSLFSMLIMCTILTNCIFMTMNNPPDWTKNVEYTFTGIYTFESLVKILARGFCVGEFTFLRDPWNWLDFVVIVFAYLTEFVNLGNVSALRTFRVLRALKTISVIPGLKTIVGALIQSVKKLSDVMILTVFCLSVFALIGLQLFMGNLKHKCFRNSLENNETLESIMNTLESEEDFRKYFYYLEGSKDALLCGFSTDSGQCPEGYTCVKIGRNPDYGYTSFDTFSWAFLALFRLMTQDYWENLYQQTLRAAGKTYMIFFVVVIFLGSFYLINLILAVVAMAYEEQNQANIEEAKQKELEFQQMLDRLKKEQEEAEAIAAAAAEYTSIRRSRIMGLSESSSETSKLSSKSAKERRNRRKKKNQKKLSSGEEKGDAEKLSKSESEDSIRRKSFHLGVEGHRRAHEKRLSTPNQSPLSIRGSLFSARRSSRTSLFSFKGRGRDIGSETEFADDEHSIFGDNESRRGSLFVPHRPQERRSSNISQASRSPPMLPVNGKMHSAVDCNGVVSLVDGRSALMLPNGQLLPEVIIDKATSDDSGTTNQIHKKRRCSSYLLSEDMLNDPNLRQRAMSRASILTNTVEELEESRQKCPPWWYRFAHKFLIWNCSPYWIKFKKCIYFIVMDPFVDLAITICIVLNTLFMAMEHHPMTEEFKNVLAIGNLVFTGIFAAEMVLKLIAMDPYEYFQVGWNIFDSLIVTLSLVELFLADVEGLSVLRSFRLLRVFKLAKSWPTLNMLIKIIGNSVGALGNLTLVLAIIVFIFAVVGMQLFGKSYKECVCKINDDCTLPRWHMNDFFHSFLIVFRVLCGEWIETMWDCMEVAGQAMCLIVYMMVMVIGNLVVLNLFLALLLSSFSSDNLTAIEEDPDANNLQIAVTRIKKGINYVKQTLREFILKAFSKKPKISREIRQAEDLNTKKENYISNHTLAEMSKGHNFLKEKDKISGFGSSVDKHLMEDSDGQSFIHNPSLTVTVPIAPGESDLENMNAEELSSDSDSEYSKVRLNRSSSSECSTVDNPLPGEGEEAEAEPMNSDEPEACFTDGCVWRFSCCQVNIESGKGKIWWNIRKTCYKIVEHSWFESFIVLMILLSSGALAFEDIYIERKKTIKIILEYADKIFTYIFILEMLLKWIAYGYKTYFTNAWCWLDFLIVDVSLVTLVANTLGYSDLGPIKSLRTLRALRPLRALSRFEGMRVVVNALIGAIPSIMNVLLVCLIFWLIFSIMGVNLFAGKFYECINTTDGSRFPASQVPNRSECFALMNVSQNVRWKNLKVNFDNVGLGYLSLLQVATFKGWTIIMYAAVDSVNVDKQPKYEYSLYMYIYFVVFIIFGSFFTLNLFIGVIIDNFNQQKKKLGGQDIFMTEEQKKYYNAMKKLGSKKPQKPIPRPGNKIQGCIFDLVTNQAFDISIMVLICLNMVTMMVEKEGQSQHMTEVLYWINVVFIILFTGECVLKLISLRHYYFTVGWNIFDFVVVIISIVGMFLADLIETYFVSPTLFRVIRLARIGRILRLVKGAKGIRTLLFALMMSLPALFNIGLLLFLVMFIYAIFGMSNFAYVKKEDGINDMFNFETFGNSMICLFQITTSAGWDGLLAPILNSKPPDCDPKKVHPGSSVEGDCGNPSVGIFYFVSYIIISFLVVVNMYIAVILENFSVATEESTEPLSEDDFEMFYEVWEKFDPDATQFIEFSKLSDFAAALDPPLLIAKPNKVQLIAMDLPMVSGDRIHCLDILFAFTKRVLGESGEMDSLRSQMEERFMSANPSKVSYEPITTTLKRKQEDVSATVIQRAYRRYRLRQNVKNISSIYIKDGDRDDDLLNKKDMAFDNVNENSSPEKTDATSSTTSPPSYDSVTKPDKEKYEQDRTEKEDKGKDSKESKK
T1 sequence (Q07699 whole entry partner, looked up): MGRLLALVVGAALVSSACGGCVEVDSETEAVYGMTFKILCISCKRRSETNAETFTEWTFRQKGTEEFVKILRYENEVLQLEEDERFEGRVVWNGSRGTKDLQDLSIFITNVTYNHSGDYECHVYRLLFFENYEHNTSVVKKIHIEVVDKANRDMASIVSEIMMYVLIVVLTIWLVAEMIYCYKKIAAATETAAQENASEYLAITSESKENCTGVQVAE

CN(C)S(=O)(=O)NC(=O)c1cc(Cl)c(Oc2ccc(Cl)c(C(F)(F)F)c2)cc1F [Preparation 1, 5-chloro-4-(4-chloro-3-(trifluoromethyl)phenoxy)-N-(N,N-dimethylsulfamoyl)-2-fluorobenzamide]
IC50 [1]: 53 nM | IC50 [2]: 253 nM

CC(C)COc1ncc(Oc2cc(F)c(C(=O)NS(N)(=O)=O)cc2Cl)cc1Cl [Preparation 4, 5-chloro-4-((5-chloro-6-isobutoxypyridin-3-yl)oxy)-2-fluoro-N-sulfamoylbenzamide]
IC50 [1]: 9 nM | IC50 [2]: 70.8 nM

CN(C)S(=O)(=O)NC(=O)c1cc(Cl)c(COc2ccc(Cl)c(Cl)c2)cc1F [Preparation 5, 5-chloro-4-((3,4-dichlorophenoxy)methyl)-N-(N,N-dimethylsulfamoyl)-2-fluorobenzamide]
IC50 [1]: 19 nM | IC50 [2]: 174 nM

NS(=O)(=O)NC(=O)c1cc(Cl)c(Oc2ccc(Cl)c(C(F)(F)F)c2)cc1F [Preparation 7, 5-chloro-4-(4-chloro-3-(trifluoromethyl)phenoxy)-2-fluoro-N-sulfamoyl-benzamide]
IC50 [1]: 190 nM | IC50 [2]: 1130 nM

CNS(=O)(=O)NC(=O)c1cc(Cl)c(Oc2ccc(Cl)c(C(F)(F)F)c2)cc1F [Preparation 8, 5-chloro-4-(4-chloro-3-(trifluoromethyl)phenoxy)-2-fluoro-N-(N-methyl-sulfamoyl)benzamide]
IC50 [1]: 22 nM | IC50 [2]: 109 nM

NS(=O)(=O)NC(=O)c1cc(Cl)c(Oc2ccc(OC(F)(F)F)c(Cl)c2)cc1F [Preparation 10, 5-chloro-4-(3-chloro-4-(trifluoromethoxy)phenoxy)-2-fluoro-N-sulfamoyl-benzamide]
IC50 [1]: 226 nM | IC50 [2]: 2000 nM

CNS(=O)(=O)NC(=O)c1cc(Cl)c(Oc2ccc(OC(F)(F)F)c(Cl)c2)cc1F [Preparation 11, 5-chloro-4-(3-chloro-4-(trifluoromethoxy)phenoxy)-2-fluoro-N-(N-methyl-sulfamoyl)benzamide]
IC50 [1]: 15 nM | IC50 [2]: 145 nM

CN(C)S(=O)(=O)NC(=O)c1cc(Cl)c(Oc2ccc(OC(F)(F)F)c(Cl)c2)cc1F [Preparation 12, 5-chloro-4-(3-chloro-4-(trifluoromethoxy)phenoxy)-N-(N,N-dimethylsulfamoyl)-2-fluorobenzamide]
IC50 [1]: 41 nM | IC50 [2]: 218 nM

CC(C)COc1ncc(Oc2cc(F)c(C(=O)NS(=O)(=O)N3CCCC3)cc2Cl)cc1Cl [Preparation 14, 5-chloro-4-((5-chloro-6-isobutoxypyridin-3-yl)oxy)-2-fluoro-N-(pyrrolidin-1-ylsulfonyl)benzamide]
IC50 [1]: 44 nM | IC50 [2]: 30.1 nM

CC(C)COc1ncc(Oc2cc(F)c(C(=O)NS(=O)(=O)N3CCCCC3)cc2Cl)cc1Cl [Preparation 15, 5-chloro-4-((5-chloro-6-isobutoxypyridin-3-yl)oxy)-2-fluoro-N-(piperidin-1-ylsulfonyl)benzamide]
IC50 [1]: 64 nM | IC50 [2]: 58.4 nM

CC(C)COc1ncc(Oc2cc(F)c(C(=O)NS(=O)(=O)N3CCCCCC3)cc2Cl)cc1Cl [Preparation 16, N-(azepan-1-ylsulfonyl)-5-chloro-4-((5-chloro-6-isobutoxypyridin-3-yl)oxy)-2-fluorobenzamide]
IC50 [1]: 73 nM | IC50 [2]: 542 nM

CC(C)COc1ncc(Oc2cc(F)c(C(=O)NS(=O)(=O)N(C)C(C)C)cc2Cl)cc1Cl [Preparation 17, 5-chloro-4-((5-chloro-6-isobutoxypyridin-3-yl)oxy)-2-fluoro-N-(N-isopropyl-N-methylsulfamoyl) benzamide]
IC50 [1]: 125 nM | IC50 [2]: 123 nM

CC(C)COc1ncc(Oc2cc(F)c(C(=O)NS(=O)(=O)Nc3ccc(C#N)cc3)cc2Cl)cc1Cl [Preparation 21, 5-chloro-4-((5-chloro-6-isobutoxypyridin-3-yl)oxy)-N-(N-(4-cyanophenyl)sulfamoyl)-2-fluoro-benzamide]
IC50 [1]: 828 nM | IC50 [2]: 2940 nM

CN(C)S(=O)(=O)NC(=O)c1cc(Cl)c(OCc2ccc(Cl)c(Cl)c2)cc1F [Preparation 23, 5-chloro-4-((3,4-dichlorobenzyl)oxy)-N-(N,N-dimethyl-sulfamoyl)-2-fluoro-benzamide]
IC50 [1]: 271 nM | IC50 [2]: 1250 nM

CC(C)COc1ncc(Oc2cc(F)c(C(=O)NS(=O)(=O)c3cn(C)cn3)cc2Cl)cc1Cl [Preparation 24, 5-chloro-4-((5-chloro-6-isobutoxypyridin-3-yl)oxy)-2-fluoro-N-((1-methyl-1H-imidazol-4-yl)sulfonyl)benzamide]
IC50 [1]: 34 nM | IC50 [2]: 578 nM

CC(C)COc1ncc(Oc2cc(F)c(C(=O)NS(=O)(=O)N3CCc4ccccc43)cc2Cl)cc1Cl [Preparation 25, 5-chloro-4-((5-chloro-6-isobutoxypyridin-3-yl)oxy)-2-fluoro-N-(indolin-1-yl-sulfonyl)benzamide]
IC50 [1]: 190 nM | IC50 [2]: 388 nM

CC(C)COc1ncc(Oc2cc(F)c(C(=O)NS(=O)(=O)c3c[nH]cn3)cc2Cl)cc1Cl [Preparation 26, N-((1H-imidazol-4-yl)sulfonyl)-5-chloro-4-((5-chloro-6-isobutoxypyridin-3-yl)oxy)-2-fluorobenzamide]
IC50 [1]: 9 nM | IC50 [2]: 77.3 nM

CC(C)COc1ncc(Oc2cc(F)c(C(=O)NS(=O)(=O)c3cccnc3)cc2Cl)cc1Cl [Preparation 28, 5-chloro-4-((5-chloro-6-isobutoxypyridin-3-yl)oxy)-2-fluoro-N-(pyridin-3-yl-sulfonyl)benzamide]
IC50 [1]: 57 nM | IC50 [2]: 703 nM

CN(C)S(=O)(=O)NC(=O)c1cc(Cl)c(Oc2cnc(OCC(F)(F)C(F)F)c(Cl)c2)cc1F [Preparation 30, 5-chloro-4-(5-chloro-6-(2,2,3,3-tetrafluoro-propoxy)pyridin-3-yloxy)-N-(N,N-dimethylsulfamoyl)-2-fluorobenzamide]
IC50 [1]: 34 nM | IC50 [2]: 47.8 nM

CN(C)S(=O)(=O)NC(=O)c1cc(Cl)c(COc2cnc(OCC(F)(F)C(F)F)c(Cl)c2)cc1F [Preparation 76]
IC50 [1]: 34.3 nM | IC50 [2]: 220 nM

CNS(=O)(=O)NC(=O)c1cc(Cl)c(COc2ccc(Cl)c(Cl)c2)cc1F [Preparation 80]
IC50 [1]: 11.6 nM | IC50 [2]: 28 nM
